In assay [1] the test system is A549. Kind of assay: Inhibition ratio against A-549 cancer cell growth at a concentration of 10e-4 mol/L. Type of assay: functional, Homo sapiens.
For assay [2], the system named is A549. Kind of assay: Inhibition ratio against A-549 cancer cell growth at a concentration of 10e-5 mol/L. Type of assay: functional, Homo sapiens.
The subject of assay [3] is A549. Description: Inhibition ratio against A-549 cancer cell growth at a concentration of 10e-6 mol/L. Type of assay: functional, Homo sapiens.
Assay [4] concerns A549. Kind of assay: Inhibition ratio against A-549 cancer cell growth at a concentration of 10e-7 mol/L. Format: functional, Homo sapiens.
Assay [5] has as its system A549. Description: Inhibition ratio against A-549 cancer cell growth at a concentration of 10e-8 mol/L. Type of assay: functional, Homo sapiens.
The subject of assay [6] is P388. Kind of assay: Inhibition ratio against P-388 cancer cell growth at a concentration of 10e-4 mol/L. Type of assay: functional, Mus musculus.
For assay [7], the system named is P388. Description: Inhibition ratio against P-388 cancer cell growth at a concentration of 10e-5 mol/L. Type of assay: functional, Mus musculus.
For assay [8], the system named is P388. Kind of assay: Inhibition ratio against P-388 cancer cell growth at a concentration of 10e-6 mol/L. Format: functional, Mus musculus.
Assay [9] deals with P388. Kind of assay: Inhibition ratio against P-388 cancer cell growth at a concentration of 10e-7 mol/L. Format: functional, Mus musculus.
The subject of assay [10] is P388. Kind of assay: Inhibition ratio against P-388 cancer cell growth at a concentration of 10e-8 mol/L. Type of assay: functional, Mus musculus.

The structures appear in SMILES notation.

With `COc1ccc(C=C2c3ccccc3C(=O)c3ccccc32)cc1`, the Ratio with A549 [1] came out at 90; with A549 [2], 84.7; with A549 [3] it was 87; with A549 [4] it was 85.4; in the assay with A549 [5] it was 84.8; with P388 [6], 76.7. The Ratio with P388 [7] is 72.5; with P388 [8] it was 76.5; in the assay with P388 [9] it was 64.3; with P388 [10] it was 75.5.

Consider `O=C1c2ccccc2C(=Cc2ccc(O)cc2)c2ccccc21`, for which the Ratio in the assay on A549 [1] was found to be 92.9; with A549 [2], 87; with A549 [3] it was 87.2; in the assay on A549 [4], 88.7; with A549 [5], 60; in the assay with P388 [6], 100. In addition, the Ratio with P388 [7] came to 72; in the assay with P388 [8], 41.6; with P388 [9], 27.1; in the assay on P388 [10], 42.8.

For `COc1ccccc1C=C1c2ccccc2C(=O)c2ccccc21`, the Ratio is 89.3 with A549 [1]; 81.7 with A549 [2]; 85.7 in the assay with A549 [3]; 86.8 with A549 [4]; 66.3 in the assay with A549 [5]; 82.2 in the assay on P388 [6]. Further, the Ratio in the assay with P388 [7] worked out at 76.1; in the assay on P388 [8] it was 55.4; in the assay on P388 [9], 47; in the assay with P388 [10], 32.7.

Take `O=C1c2ccccc2C(=Cc2ccccc2Cl)c2ccccc21`: the Ratio is 89.9 with A549 [1]; 53 with A549 [2]; 0.3 in the assay with A549 [3]; 6 in the assay on A549 [4]; 5.9 in the assay on A549 [5]; 58.4 with P388 [6]. The Ratio in the assay with P388 [7] was 23.7; in the assay with P388 [8] it was 0; in the assay with P388 [9], 0; in the assay with P388 [10], 0.

On to `COc1cccc(C=C2c3ccccc3C(=O)c3ccccc32)c1`, for which the Ratio in the assay with A549 [1] was 95.8; with A549 [2] it was 92.5; in the assay on A549 [3], 25.1; with A549 [4], 38.1; with A549 [5], 6.2; in the assay on P388 [6], 96. Further, the Ratio with P388 [7] is listed as 48.2; in the assay with P388 [8], 27.2; in the assay with P388 [9] it was 7.1; in the assay on P388 [10], 1.

In the case of `Cc1cccc(C=C2c3ccccc3C(=O)c3ccccc32)c1`, the Ratio in the assay with A549 [1] amounted to 93; in the assay on A549 [2], 18.2; in the assay with A549 [3], 0; with A549 [4], 0; in the assay with A549 [5], 0; in the assay on P388 [6] it was 53.3. Also, the Ratio in the assay on P388 [7] was determined as 7.2; in the assay on P388 [8], 0; in the assay with P388 [9], 0; in the assay with P388 [10], 0.

For `O=C1c2ccccc2C(=Cc2ccccc2O)c2ccccc21`, the Ratio is on record as 96.3 with A549 [1]; 94.8 in the assay with A549 [2]; 89.3 with A549 [3]; 83 in the assay with A549 [4]; 85.2 with A549 [5]; 95.6 with P388 [6]. Further, the Ratio in the assay on P388 [7] was 88.2; with P388 [8], 65.8; with P388 [9], 44.9; with P388 [10], 38.5.

For the molecule `O=C1c2ccccc2C(=Cc2ccc(Cl)cc2)c2ccccc21`, the Ratio in the assay on A549 [1] is 96; in the assay with A549 [2], 87.3; with A549 [3], 41.9; with A549 [4], 33.6; with A549 [5], 41.7; with P388 [6], 70. For the same molecule, the Ratio with P388 [7] is listed as 36; with P388 [8], 3.9; with P388 [9], 2.8; in the assay with P388 [10], 4.4.

For the molecule `O=C1c2ccccc2C(=Cc2cccc([N+](=O)[O-])c2)c2ccccc21`, the Ratio was found to be 96 in the assay on A549 [1]; 91.8 with A549 [2]; 12.4 in the assay on A549 [3]; 7.7 with A549 [4]; 13.2 in the assay with A549 [5]; 89.8 in the assay on P388 [6]. The Ratio in the assay on P388 [7] was found to be 55.8; with P388 [8], 23.9; in the assay with P388 [9] it was 22.1; in the assay on P388 [10], 30.7.

As for `O=C1c2ccccc2C(=Cc2ccccc2)c2ccccc21`, the Ratio in the assay on A549 [1] is 95.4; with A549 [2], 79.9; in the assay with A549 [3], 9.8; with A549 [4], 1; in the assay on A549 [5], 4.4; in the assay with P388 [6], 97.8. Besides, the Ratio in the assay with P388 [7] is 56.2; in the assay with P388 [8], 17.8; with P388 [9] it was 0; with P388 [10], 2.7.

With `COc1ccc(C=C2c3ccccc3C(=O)c3ccccc32)cc1OC`, the Ratio with A549 [1] is given as 95.7; with A549 [2], 92.8; in the assay on A549 [3] it was 87; in the assay with A549 [4] it was 90.6; in the assay on A549 [5], 81.7; in the assay with P388 [6], 95.7. Moreover, the Ratio in the assay on P388 [7] was 80.2; in the assay with P388 [8], 56; in the assay with P388 [9], 53.6; in the assay on P388 [10], 50.9.

Turning to `Cc1ccccc1C=C1c2ccccc2C(=O)c2ccccc21`, the Ratio is recorded as 90.9 with A549 [1]; 84.8 in the assay on A549 [2]; 18.5 in the assay on A549 [3]; 0 in the assay with A549 [4]; 5.7 in the assay with A549 [5]; 84.1 in the assay with P388 [6]. For the same molecule, the Ratio in the assay with P388 [7] is 42.4; in the assay on P388 [8], 24.9; with P388 [9], 8; in the assay on P388 [10] it was 13.1.

For the molecule `O=C1c2ccccc2C(=Cc2cccc(Cl)c2)c2ccccc21`, the Ratio with A549 [1] came to 97.1; in the assay on A549 [2] it was 92; with A549 [3] it was 62.9; with A549 [4], 5.7; with A549 [5], 12.5; in the assay with P388 [6] it was 89.2. The Ratio amounted to 39.4 with P388 [7], 11.9 in the assay with P388 [8], 19.3 in the assay on P388 [9] and 10.9 in the assay with P388 [10].

Take `Cc1ccc(C=C2c3ccccc3C(=O)c3ccccc32)cc1`: the Ratio with A549 [1] amounted to 95.2; with A549 [2], 91.8; in the assay on A549 [3] it was 90; in the assay on A549 [4], 92.7; with A549 [5], 84.7; in the assay with P388 [6], 69. In addition, the Ratio came to 42.4 in the assay with P388 [7], 48.6 in the assay on P388 [8], 49.3 in the assay with P388 [9] and 56.5 in the assay on P388 [10].

As to `O=C1c2ccccc2C(=Cc2ccc(F)cc2)c2ccccc21`, the Ratio in the assay with A549 [1] worked out at 96.8; in the assay on A549 [2] it was 88.2; in the assay with A549 [3], 56.5; with A549 [4] it was 18.5; with A549 [5] it was 49.2; with P388 [6], 83.3. Moreover, the Ratio in the assay with P388 [7] stood at 31.4; in the assay with P388 [8] it was 18.4; in the assay on P388 [9] it was 10.3; in the assay with P388 [10], 5.2.

The values are drawn from ChEMBL document CHEMBL1147422, “Synthesis and antitumor activity of 10-substituted benzylidene anthrone” (2004).
